Results from US6235791A, “Use of amines to produce drugs for preventing tumor cell proliferation” (Sanofi-Synthelabo, priority 1996, dated 2001).

Experiments:
MCF7 RPMI p6-7 = assay: proliferation of mammary epithelial cells, IC50 after 6 days; type: cell-based; conditions: Homo sapiens, MCF7, 144 h, 6 days of treatment
Experimental: (§1) Another study was also performed in order to determine the effect of SR 31747 on the in vitro and in vivo growth of mammary and prostate epithelial tumour cells.
(§2) The study consisted in evaluating the potential antitumour activity of SR 31747 on the growth of a variety of cancerous breast epithelial lines. The study is carried out in vitro on cell cultures, as well as in vivo after inoculation of tumoral mammary lines in "nude" athymic mice.
(§3) The cell lines which were used are as follows:
(§4) The hormone-sensitive MCF-7 line originates from a pleural effusion of a breast adenocarcinoma. The antioestrogen-resistant MCF-7LY2 cells were obtained from the MCF-7LCC1 and MCF-7LCC2 lines were developed in nude mice, after inoculation of the MCF-7 cells. The two lines are oestrogen-independent. The MCF-7CC2 cells are also antioestrogen-resistant. The MCF-7AZTD5 line is derived from the MCF-7 line after stable transfection with the H-ras oncogene. The MCF-7AZTD5 cells are antioestrogen-resistant in vitro. All of these lines are maintained on DMEM/F12 (1/1, vol/vol) containing 10% decomplemented foetal calf serum and 16 ng/ml of human insulin. The MCF-7LCC2 line is cultured in the permanent presence of 10^-7 M hydroxytamoxifen. The MDA-MB231 tumoral mammary epithelial cells are oestrogen- and antioestrogen-insensitive. They are cultured in L15 medium supplemented with 10% FCS, 1% essential amino acids and 10 μg/ml of human insulin.
(§5) All the lines are maintained at 37° C. in a humid air/CO2 (95%/5%) atmosphere, except for the MDA-MB231 cells which are cultured in the absence of CO2. THe cell lines are checked regularly free of mycoplasms.
(§6) Table B--Effect of SR 31747 on the proliferation of mammary epithelial cells. Determination of the IC50 after 6 days of treatment--medium changed every 48 hours

LCC1 p23-24 (MCF-7LCC1) = assay: as above; type: cell-based; conditions: Homo sapiens, Epithelial cell, 144 h, 6 days of treatment
Experimental: as §1, §2, §3, §4, §5, §6

MCF7 AZTD5 = assay: as above; type: cell-based; conditions: Homo sapiens, MCF7, 144 h, 6 days of treatment
Experimental: as §1, §2, §3, §4, §5, §6

MCF7 p23-25 = assay: as above; type: cell-based; conditions: Homo sapiens, MCF7, 144 h, 6 days of treatment
Experimental: as §1, §2, §3, §4, §5, §6

MCF7 AZ = assay: as above; type: cell-based; conditions: Homo sapiens, 144 h, 10% FCS, 6 days of treatment
Experimental: as §1, §2, §3, §4, §5, §6

MDA MB231 p131 = assay: as above; type: cell-based; conditions: 6 days of treatment
Experimental: as §1, §2, §3, §4, §5, §6

LY2 p22-23 (MCF-7LY2) = assay: as above; type: cell-based; conditions: Homo sapiens, Epithelial cell, 144 h; LY2 p22-23, 10% FCS, 6 days of treatment
Experimental: as §1, §2, §3, §4, §5, §6

MCF7 22HTB RPMI p + 4 = assay: as above; type: cell-based; conditions: Homo sapiens, 144 h; MCF7 22HTB RPMI p + 4, 0.1% FCS, 6 days of treatment
Experimental: as §1, §2, §3, §4, §5, §6

LCC2 p26-27 (MCF-7LCC2) = assay: as above; type: cell-based, human; conditions: 6 days of treatment
Experimental: as §1, §2, §3, §4, §5, §6

human myeloma RPMI 8226 = assay: MTT colorimetric proliferation test, 5 days; type: cell-based; conditions: 120 h, read-out: percentage of cell proliferation relative to the untreated control taken as 100%
Experimental: (§7) Among other cells used, the following lines were routinely cultured in RPMI medium supplemented with 10% foetal calf serum (FCS):
(§8) The antitumour activity is measured according to the colorimetry method using MTT, 3-(4,5-dimethylthiazole-2,5-diphenyltetrazolium) bromide as described by Mosmann T., Journ. of Im. Methods; 1983, 65, 55.
(§9) This colorimetric assay makes it possible to measure quantitatively the antitumour activity of a solution containing a compound used according to the invention.
(§10) According to the procedure used, the suspended cells (such as the myeloma cells) are inoculated at 2×10^3 cells/ml in 1 ml wells in defined medium. The adherent cells (such as the MCF-7 cells) are inoculated at 5×10^4 cells/ml in 1 ml wells in RPMI medium+0.5% FCS overnight. The next day, the cell carpet is washed twice and replaced by the defined medium.
(§11) The defined medium corresponds to: RPMI+10 μg/ml insulin+10 μg/ml human transferrin.
(§12) In order to carry out this test, cells are maintained in the presence of the solution containing a compound used according to the invention for 5 days, and the MTT is then added to the culture medium.
(§13) The 5 day period which was selected corresponds to the optimum time for the activity. After culturing for 5 days, the proliferation of the cells is measured by the test described above. The optical density at 570 nm is measured. A blue coloration develops in the wells where the cells are still alive. The intensity of the coloration is proportional to the quantity of live cells.

human myeloma U266 = assay: MTT colorimetric proliferation test, 5 days; type: cell-based; conditions: U-266, 120 h, read-out: percentage of cell proliferation relative to the untreated control taken as 100%
Experimental: as §7, §8, §9, §10, §11, §12, §13

tumour cells = assay: biochemical and pharmacological studies illustrated above (binding and antiproliferative tests)
Experimental: The membranes were prepared as follows: 10 MCF-7 cells are homogenized for 10 seconds on a Polytron® in 10 ml of Hepes® buffer pH=7.4 containing: 210 mM D-mannitol, 70 mM sucrose, 1 mM EDTA, 0.3 mM PMSF. The homogenate is centrifuged at 650 xg for 15 minutes and the supernatant is then taken up and centrifuged for 1 at 100,000 xg. The pellet is resuspended in Tris-HCl buffer pH=7.4 at a concentration of 1 mg/ml and stored at-70° C. The total binding is carried out in a 5 ml tube into which the following are introduced:
The non-specific binding is performed by adding 25 μl of 10^-5 M SR 31747 to the above solution (final volume 250 μl) and then incubating for 30 at 25° C. The free and bound fractions are separated by placing 200 μl on a column of 1 ml of Sephadex® LH 20 and the radioactivity is then counted on the first 2 ml obtained by eluting the column with 50 mM Tris buffer ph=7.4.
The 5 day period which was selected corresponds to the optimum time for the activity. After culturing for 5 days, the proliferation of the cells is measured by the test described above. The optical density at 570 nm is measured. […] The intensity of the coloration is proportional to the quantity of live cells.

CCN(C/C=C\c1ccc(C2CCCCC2)c(Cl)c1)C1CCCCC1 [SR 31747, cis-N-Cyclohexyl-N-ethyl [3-(3-chloro-4-cyclo-hexylphenyl)allyl]amine]
IC50 (MCF7 RPMI p6-7; MCF7 RPMI p6-7, 0% FCS): 3 nM
IC50 (MCF7 RPMI p6-7; MCF7 RPMI p6-7, 0.1% FCS): 7 nM
IC50 (LCC1 p23-24 (MCF-7LCC1); LCC1 p23-24, 0.1% FCS): 2 nM
IC50 (LCC1 p23-24 (MCF-7LCC1); LCC1 p23-24, 5% FCS): 1000 nM
IC50 (MCF7 AZTD5; MCF7 AZTD5, 0.1% FCS): 0.2 nM
IC50 (MCF7 AZTD5; MCF7 AZTD5, 10% FCS): 600 nM
IC50 (MCF7 p23-25; MCF7 p23-25, 0.1% FCS): 2 nM
IC50 (MCF7 p23-25; MCF7 p23-25, 0.5% FCS): 100 nM
IC50 (MCF7 AZ): > 1000 nM
IC50 (MDA MB231 p131; Homo sapiens, MDA-MB-231, 144 h, MDA MB231 p131, 0.1% FCS): 2 nM
IC50 (MDA MB231 p131; Homo sapiens, MDA-MB-231, 144 h, MDA MB231 p131, 10% FCS): 800 nM
IC50 (MDA MB231 p131; MDA MB231 p131, 10% FCS): 400 nM
IC50 (LY2 p22-23 (MCF-7LY2)): > 100 nM
IC50 (MCF7 22HTB RPMI p + 4): 2 nM
IC50 (LCC2 p26-27 (MCF-7LCC2); Homo sapiens, LCC2, 144 h, LCC2 p26-27, 0.1 DCC): 2 nM
IC50 (LCC2 p26-27 (MCF-7LCC2); Homo sapiens, LCC2, 144 h, LCC2 p26-27, 5% DCC): 400 nM
IC50 (LCC2 p26-27 (MCF-7LCC2); LCC2 p26-27, 5% DCC): 300 nM
activity at 10 pM (human myeloma RPMI 8226; RPMI 8226, 10 pM): 100%
activity at 0.0001 µM (human myeloma RPMI 8226; RPMI 8226, 100 pM): 91%
activity at 0.001 µM (human myeloma RPMI 8226; RPMI 8226, 1 nM): 79%
activity at 0.01 µM (human myeloma RPMI 8226; RPMI 8226, 10 nM): 66%
activity at 0.1 µM (human myeloma RPMI 8226; RPMI 8226, 100 nM): 54%
activity at 1 µM (human myeloma RPMI 8226; RPMI 8226, 1 μM): 9%
activity at 10 µM (human myeloma RPMI 8226; RPMI 8226, 10 μM): 6%
activity at 10 pM (human myeloma U266; U266, 10 pM): 100%
activity at 0.0001 µM (human myeloma U266; U266, 100 pM): 100%
activity at 0.001 µM (human myeloma U266; U266, 1 nM): 95%
activity at 0.01 µM (human myeloma U266; U266, 10 nM): 82%
activity at 0.1 µM (human myeloma U266; U266, 100 nM): 67%
activity at 1 µM (human myeloma U266; U266, 1 μM): 52%
activity at 10 µM (human myeloma U266; U266, 10 μM): 11%
activity in the biochemical and pharmacological studies (tumour cells): best activity
